Where “and” joins values, the source holds several entries; their conditions need not be identical. Equal values may be shown once.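 48-hour exposure; five concentrations; linearly interpolated endpoints. GI50: concentration for 50% inhibition of growth. TGI denotes the concentration required for complete inhibition of growth.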
Key:
Test in all cases: inhibition of tumour cell growth, NCI panel, 48 h
MALME-3M melanoma = test system: MALME-3M melanoma
UACC-62 melanoma = test system: UACC-62 melanoma
HT29 colon = test system: HT29 colon
NCI-H23 lung = test system: NCI-H23 lung
LOX IMVI melanoma = test system: LOX IMVI melanoma
HL-60(TB) leukemia = test system: HL-60(TB) leukemia
HOP-92 NSCLC = test system: HOP-92 NSCLC
SR leukemia = test system: SR leukemia
OVCAR-5 ovarian = test system: OVCAR-5 ovarian
RPMI-8226 leukemia = test system: RPMI-8226 leukemia

| Compound | TGI (MALME-3M melanoma) | TGI (UACC-62 melanoma) | TGI (HT29 colon) | TGI (NCI-H23 lung) [µM] | TGI (LOX IMVI melanoma) | TGI (HL-60(TB) leukemia) | TGI (HOP-92 NSCLC) | TGI (SR leukemia) [µM] | TGI (OVCAR-5 ovarian) [µM] | TGI (RPMI-8226 leukemia) | GI50 (MALME-3M melanoma) [µM] | GI50 (UACC-62 melanoma) [µM] | GI50 (HT29 colon) [µM] | GI50 (NCI-H23 lung) | GI50 (LOX IMVI melanoma) | GI50 (HL-60(TB) leukemia) [µM] | GI50 (HOP-92 NSCLC) [µM] | GI50 (SR leukemia) | GI50 (OVCAR-5 ovarian) | GI50 (RPMI-8226 leukemia) [µM] |
| --- | --- | --- | --- | --- | --- | --- | --- | --- | --- | --- | --- | --- | --- | --- | --- | --- | --- | --- | --- | --- |
| O=C(CC(=O)c1ccccc1)C(=O)NC12CC3CC(CC(C3)C1)C2 | > 100 µM | > 100 µM | > 100 µM | > 100 | > 50 µM | > 69.1 µM | > 100 µM | > 100 | > 100 | > 66 µM |  |  |  |  |  |  |  |  |  |  |
| O=S(=O)(N/N=C/c1ccc(Cl)cc1Cl)c1ccccc1 | > 100 µM | > 100 µM | > 100 µM | > 100 | > 100 µM | 56.9 µM | 94.9 µM | > 100 | > 100 | > 100 µM |  |  |  |  |  |  |  |  |  |  |
| COC(=O)c1nc(N)nc(C(=O)OC)c1C(=O)c1ccccc1 | > 100 µM | > 100 µM | > 100 µM | > 100 | > 100 µM | > 100 µM | > 100 µM | > 100 | > 100 | > 100 µM |  |  |  |  |  |  |  |  |  |  |
| C=C1C(=O)O[C@H]2[C@H]1CC/C(CNC(=O)/C=C/c1ccc(Cl)cc1Cl)=C\CC[C@@]1(C)O[C@@H]21 | 2.7 µM | 2.9 µM | 2.49 µM | 3.2 | 1.81 µM | 0.542 µM | 2.52 µM | 1.89 | 4.1 | 1.54 µM | 1.29 | 1.33 | 0.841 | 1.4 µM | 0.516 µM | 0.0256 | 0.483 | 0.232 µM | 1.85 µM | 0.329 |
| CN(CCCN(C)CCC1CCCCC1)CCC1CCCCC1 | 3.03 µM | 2.39 µM | 2.37 µM | 22.1 | 3.55 µM | 8.61 µM | 5.72 µM | 4.21 | 10.7 | 5.09 µM | 1.39 | 0.888 | 0.475 | 8.7 µM | 1.61 µM | 0.319 | 0.687 | 1.19 µM | 2.98 µM | 1.47 |
| CCOC(=O)/C=C1\Oc2ccccc2C1(C)O (stereo not given) | > 100 µM | > 100 µM | > 100 µM | > 100 | > 100 µM | > 100 µM | > 100 µM | > 100 | > 100 | > 100 µM |  |  |  |  |  |  |  |  |  |  |
| COc1cc2nncc(SCc3ccc(Cl)c(Cl)c3)c2cc1OC | > 100 µM | > 100 µM | > 100 µM | > 100 | > 100 µM | > 100 µM | > 100 µM | > 100 | > 100 | > 100 µM |  |  |  |  |  |  |  |  |  |  |
| c1ccc(/C(=N\Nc2ccc3ccccc3n2)c2ccccn2)cc1 | 5.76 µM | 7.41 µM | 26.1 µM | 22.8 | 5.61 µM | 0.775 µM | 19.8 µM | 1.14 | 43 | 3.68 µM | 0.546 | 0.549 | 0.608 | 0.983 µM | 0.457 µM | 0.235 | 0.551 | 0.246 µM | 0.81 µM | 0.503 |
| CN(C)CC1=Nc2cccc3cccc(c23)N1 | 36.5 µM | 29.6 µM | 53.7 µM | 49.9 | 37.3 µM | 45.2 µM | 33.1 µM | 84.3 | 31.6 | 55.8 µM |  |  |  |  |  |  |  |  |  |  |
| CCc1nc(N)nc(N)c1C#CC(C)c1cc(-c2ccnc(C)c2)c2oc(C)nc2c1 (stereo not given) | 14.4 µM | 3.23 µM | 7.74 µM | 5.31 | 2.3 µM | 2.22 µM | 11.4 µM | > 53.9 | 13.6 | 3.31 µM | 2.11 | < 0.01 | < 0.01 | < 0.01 µM | < 0.01 µM | < 0.01 | 0.703 | < 0.0342 µM | < 0.0103 µM | 0.0771 |
| c1ccc2c(CN3CCC(C4CCN(Cc5cccc6ccccc56)CC4)CC3)cccc2c1 | 4.87 µM and 14.6 µM | 17.5 µM and 20.9 µM | 11.7 µM and 11.2 µM | > 100 | 16.8 µM and 23.4 µM | 4.5 µM and 26.1 µM | 12 µM and 32.9 µM |  | > 100 | 15 µM and 10.9 µM |  |  |  | 23.2 µM and > 100 µM | 4.33 µM and 10.2 µM |  |  | 1.47 µM and 10.2 µM | 22.3 µM and > 100 µM |  |
| CCc1c2c(nc3ccc(OCc4ccc(B5OC(C)(C)C(C)(C)O5)cc4)cc13)-c1cc3c(c(=O)n1C2)COC(=O)[C@]3(O)CC | 3.07 µM | 0.186 µM | > 100 µM | 0.219 | 0.355 µM |  | 0.963 µM | > 100 | > 100 | > 100 µM | 0.134 | < 0.01 | 0.115 | 0.0248 µM | < 0.01 µM | 0.0291 | 0.0378 | < 0.01 µM | 0.215 µM | 0.312 |
| CNc1ncc2cc(Oc3ccc(F)cc3F)c(=O)n(C)c2n1 | > 25 µM | > 25 µM | > 25 µM | > 25 | > 25 µM | > 25 µM | > 25 µM | > 25 | > 25 | > 25 µM | > 25 | > 25 | > 25 | > 25 µM | > 25 µM | > 25 | 3.82 | > 25 µM | > 25 µM | > 25 |
| Cc1cn(Cc2ccccc2CCl)c(=O)n(Cc2ccccc2CCl)c1=O | 4.02 µM | 3.16 µM | 5.69 µM | 5.43 | 2.59 µM | 3.24 µM | 3.62 µM | 3.25 | 9.69 | 6.36 µM | 2.03 | 1.67 | 2.04 | 2.19 µM | 1.16 µM | 1.37 | 1.86 | 0.661 µM | 2.61 µM | 1.93 |
| CC(=O)n1c(-c2ccc(Cl)c(Cl)c2)cn(-c2ccc(Cl)cc2)c1=O | > 100 µM | 55.8 µM | > 100 µM |  | > 100 µM | > 100 µM | 30.2 µM | 33 | > 100 | 67.7 µM | 32 | 19.8 | 57.7 |  | 83.6 µM | 34.8 | 13.9 | 16.1 µM | 55 µM | 18.8 |

Source: PubChem BioAssay (NCI)
